Experiments:
[1] = system: Apis mellifera Carniolan foraging worker honeybees; experiment: Proboscis extension response (PER) assay with bees conditioned to 2-heptanone; type: in vivo; details: 0.5% compound in Triton X-100/water on filter paper, 4 s exposure; only bees giving PER with 2-heptanone and not with water or 15% Triton X-100 controls counted
Experimental: To determine whether a living honeybee can recognize a candidate compound, these compounds were tested using a proboscis extension response (PER) assay using classical conditioning approaches. Proboscis extension response conditioning is a case of appetitive learning, in which bees learn to associate odor stimuli with sucrose reward in the laboratory. In this case, bees were conditioned to produce a PER to 2-heptanone as the conditioned stimulus and a sugar reward as the unconditioned stimulus. These trained bees were then exposed to an odor pulse of a candidate compound to test whether a candidate compound would also produce a PER. If the candidate compound “mimics” 2-heptanone then the honeybee will extend its proboscis.
For conditioning procedures, Apis mellifera Carniolan foraging worker honeybees were obtained from a local apiary (typically 60 bees per shipment). The honeybees were held overnight in insect cages with food and water freely available, in an environmentally controlled room on a light cycle similar to the ambient cycle at the time of the assay.
For conditioning procedures, all tests were done in an odorant delivery apparatus set inside a fume hood. The apparatus comprised a set of open-ended, horizontal, 3 cm diameter by 10 cm long plastic tubes. Each tube was designed where a honeybee could be positioned at the distal end of a tube, with the opening at the other end of the tube located proximal to an inlet of the fume hood. To deliver an odorant, room air was pumped by a diaphragm pump through a particle filter via 0.25 inch plastic tubing at approximately 0.7 m/sec. The air flow passes into the headspace above an odorant (0.5% [v/v] 2-heptanone dissolved in odorless light paraffin oil) contained in a 100 mL bottle. The headspace air then passes through another plastic tube to a manifold of 4-way valves, each of which was attached near the proximal end of a plastic tube containing a bee. Each bee was exposed separately for a desired time period to the odorant by opening and closing the appropriate valve. When each valve was closed, the odor was flushed away immediately by the continuous fume hood air stream.
To train a honeybee to respond to a conditioned and unconditioned stimuli, bees were placed, without anesthesia, in individual 1.5 mL micro-centrifuge holding tubes and held overnight without access to food or water. The holding tubes containing the starved bees were placed in racks in groups of eight. One rack at a time was placed behind the odorant delivery apparatus so that each bee's head is centered at the distal end of a horizontal plastic tube. Each bee was exposed to the 2-heptanone odorant alone for four seconds, and then while being fed an 80% sucrose solution for and additional three seconds. The sucrose solution was delivered on a piece of saturated filter paper held in forceps. […] Positive and negative responses were recorded. A positive PER was scored when a bee extended its proboscis before the sucrose appeared. In a typical trial, 48 individual bees were subjected to conditioning.
After conditioning, honeybees were tested with the candidate compounds the same day or on the following day or, most commonly, both. When held overnight, bees were fed with sucrose and kept in their holding tubes. When tested the day after training, bees were given one or more rounds of conditioning with 2-heptatone to refresh their memories. Candidate compounds stocks were made at 5% (w/v) in polyoxyethylene octyl phenyl ether (TRITON® X-100), a non-ionic detergent/surfactant, and stored at 4° C. […] Test solutions were made fresh daily by mixing stock solutions with water for a final compound concentration of 0.5%. A solution of 0.5% 2-heptanone in paraffin oil was used as a positive control.

OBP2 = experiment: Fluorescent-quench ligand-protein-binding assay (OBP2 binding); parameters: species or system Apis mellifera
Text: To identify a honeybee repellent disclosed herein, candidate compounds were screened based upon the fact that 2-heptanone is an established repellent of bees. 2-heptanone is thought to mediate its behavioral response through binding to a specific odorant-binding protein called OBP2. […] Such assays are generally known in the art. See, e.g., Briand, et al., Ligand-Binding Properties and Structural Characterization of a Novel Rat Odorant-Binding Protein Variant, Eur. J. Biochem. 267(10): 3079-3089 (2000); Briand, et al., Ligand Binding and Physico-Chemical Properties of ASP2, A Recombinant Odorant-Binding Protein From Honeybee (Apis mellifera L.), Eur. J. Biochem. 268(3): 752-760 (2001); Briand, et al., Characterization of a Chemosensory Protein (ASP3c) from Honeybee (Apis mellifera L.) as a Brood Pheromone Carrier, Eur. J. Biochem. 269(18): 4586-4596 (2002), each of which is hereby incorporated by reference in its entirety.

Row | Structure (SMILES) | 2-heptanone positive bees testing positive to compound [1] [%] | OBP2 binding characteristic of compound (OBP2)
1 | CCOC(=O)CSc1nc2c(c(=O)n1-c1ccccc1)C1(CCCC1)Cc1ccccc1-2 [compound 71] | 19.1 | Moderate (Moderate, indicates that 50% or less of the compound bound to OBP2.)
2 | O=C1CSC(=O)N1CC(O)Cn1c2ccc(Cl)cc2c2cc(Cl)ccc21 (stereo not drawn) [compound 72] | 2.3 | Moderate (Moderate, indicates that 50% or less of the compound bound to OBP2.)
3 | O=C(c1ccccc1)N1N=C(C(F)(F)F)CC1(O)c1ccccc1O (stereo not drawn) [compound 73] | 8.3 | Moderate (Moderate, indicates that 50% or less of the compound bound to OBP2.)
4 | c1ccn(-c2ncnc3sc4c(c23)CCCC4)c1 [compound 77] | 14.3 | Moderate (Moderate, indicates that 50% or less of the compound bound to OBP2.)
5 | CCOC(=O)c1c(-c2ccccc2)csc1NC(=S)NC(C)=O [compound 78] | 7.7 | Moderate (Moderate, indicates that 50% or less of the compound bound to OBP2.)
6 | Cc1cc(C)c(O)c(N=Cc2cc(I)cc(I)c2O)c1 [compound 82] | 6.4 | Moderate (Moderate, indicates that 50% or less of the compound bound to OBP2.)
7 | COc1ccc2ccccc2c1C=Nc1cc(C)ccc1C [compound 84] | 27.9 | Moderate (Moderate, indicates that 50% or less of the compound bound to OBP2.)
8 | O=C1NC(=S)SC1=Cc1ccc(N2CCOCC2)c([N+](=O)[O-])c1 [compound 85] | 18.0 | Moderate (Moderate, indicates that 50% or less of the compound bound to OBP2.)
9 | Oc1ccc(Br)cc1C=Nc1ccc(NCc2ccccc2)cc1 [compound 87] | 9.5 | Moderate (Moderate, indicates that 50% or less of the compound bound to OBP2.)
10 | O=C1c2ccccc2C(=O)c2c1ccc1c(=O)n(C3CCCCC3)[nH]c21 [compound 88] | 14.3 | Moderate (Moderate, indicates that 50% or less of the compound bound to OBP2.)
11 | Cc1cc(C)c2ccc(C=Cc3ccccc3N)nc2c1O [compound 90] | 17.0 | Moderate (Moderate, indicates that 50% or less of the compound bound to OBP2.)
12 | C=CCN1C(=O)C(=Cc2cccc([N+](=O)[O-])c2O)SC1=S [compound 91] | 17.3 | Moderate (Moderate, indicates that 50% or less of the compound bound to OBP2.)
13 | C(=NN(c1ccccc1)c1ccccc1)c1ccncc1 [compound 92] | 7.0 | Moderate (Moderate, indicates that 50% or less of the compound bound to OBP2.)
14 | O=C1CCC(=O)N1CC(O)Cn1c2ccc(Br)cc2c2cc(Br)ccc21 (stereo not drawn) [compound 93] | 14.0 | Moderate (Moderate, indicates that 50% or less of the compound bound to OBP2.)
15 | NC(=O)c1ccccc1NC(=O)c1sc2ccccc2c1Cl [compound 94] | 16.7 | Moderate (Moderate, indicates that 50% or less of the compound bound to OBP2.)
16 | CC(C)CCn1c(=O)c(C(=O)NCc2ccco2)c(O)c2ccccc21 [compound 95] | 7.3 | Moderate (Moderate, indicates that 50% or less of the compound bound to OBP2.)
17 | Oc1c(I)cc2oc3c(c2c1C=Nc1nc[nH]n1)CCCC3 [compound 96] | 28.6 | Moderate (Moderate, indicates that 50% or less of the compound bound to OBP2.)
18 | CCN(CC)C(=O)c1c(NC(=O)c2ccco2)sc2c1CCCCC2 [compound 97] | 21.1 | Moderate (Moderate, indicates that 50% or less of the compound bound to OBP2.)
19 | Cc1ccc(NC(=O)c2c(NC(=O)c3ccco3)sc3c2CCCCC3)cc1 [compound 98] | 21.6 | Moderate (Moderate, indicates that 50% or less of the compound bound to OBP2.)
20 | O=C(Nc1sc2c(c1C(=O)N1CCCCC1)CCCCC2)c1ccccc1 [compound 99] | 29.0 | Moderate (Moderate, indicates that 50% or less of the compound bound to OBP2.)
21 | CCOC(=O)c1ccc(N2NC(=O)C(=Cc3ccc(N4CCOCC4)cc3)C2=O)cc1 [compound 101] | 20.9 | Moderate (Moderate, indicates that 50% or less of the compound bound to OBP2.)
22 | Cc1[nH]c2ccccc2c1C=NNC(=O)c1cccc(I)c1 [compound 103] | 32.4 | Moderate (Moderate, indicates that 50% or less of the compound bound to OBP2.)
23 | O=C1C=Cc2ccccc2C1=NNc1ccc2c(c1)OCCO2 [compound 105] | 24.3 | Moderate (Moderate, indicates that 50% or less of the compound bound to OBP2.)
24 | Clc1ccccc1-c1nnc(SCc2ccccc2)o1 [compound 106] | 7.3 | Moderate (Moderate, indicates that 50% or less of the compound bound to OBP2.)
25 | COc1ccccc1NC(=S)NC(=O)c1ccc(F)cc1 [compound 107] | 5.1 | Moderate (Moderate, indicates that 50% or less of the compound bound to OBP2.)
26 | O=c1nc(C(F)(F)F)cc(C=Cc2ccc(-c3cccc(Cl)c3)o2)[nH]1 [compound 108] | 16.2 | Moderate (Moderate, indicates that 50% or less of the compound bound to OBP2.)
27 | O=C(NC(=S)Nc1cccc2cccnc12)c1cccs1 [compound 117] | – | Moderate (Moderate, indicates that 50% or less of the compound bound to OBP2.)
28 | COc1cccc(C=C2SC(=N)NC2=O)c1OCc1ccc(Cl)cc1Cl [compound 118] | – | Moderate (Moderate, indicates that 50% or less of the compound bound to OBP2.)

— patent US9796676B2, “Honeybee repellents and uses thereof” (Inscent, Inc., priority 2013, dated 2017)
